From patent publication US20250302784A1, “MYOBLAST PROLIFERATION PROMOTER AND MYOBLAST-PROLIFERATION PROMOTING COMPOSITION, AND MUSCLE ATROPHY INHIBITOR AND MUSCLE-ATROPHY INHIBITING COMPOSITION” (MARUZEN PHARMACEUTICALS CO., LTD., priority 2022, published 2025)

Experiments:
[1] = tested on: rat model of disuse muscle atrophy; assay: Test for muscle atrophy inhibition effect in rat model of disuse muscle atrophy (hindlimb suspension); format: in vivo, Wistar rats
Protocol: Whether muscle atrophy was inhibited by orally administering the compound represented by Structural Formula (1) (using the compound available from Cayman Chemical) to a rat model of disuse muscle atrophy for 14 days was tested according to the following testing method.
Seven week-old male Wistar (Crlj: WI) rats were acquired from Charles River Laboratories Japan, Inc., and were bred in the environment where a temperature was 23±3° C. and the humidity was 55±15% and in a cycle of 12 hours in light and 12 hours in dark. The rats were acclimated for one week before use, and were allowed to freely intake a solid feed (CRF-1, available from Oriental Yeast Co., Ltd.) and tap water.
After one week of acclimation, the Wistar rats were randomly divided into groups of eight. The rats were bred for 14 days in the state where the tail of each rat was held with clips so that the rat's hind legs were raised above the floor according to the method of Morey-Holton E R et al. During the breeding period, the rats were allowed to move around within a case with their forelimbs, and were allowed to freely intake water and a feed.
The test groups were (1) a normal group (without hindlimb suspension), (2) a control group (hindlimb suspension+0 mg/kg of the compound represented by Structural Formula (1)), (3) a group with the compound represented by Structural Formula (1) (hindlimb suspension+125 mg/kg of the compound represented by Structural Formula (1)).
The compound represented by Structural Formula (1) was dissolved in water, and the solution was administered by oral gavage every day for 14 days. Water was administered to the control group.
At the end of the test, the rats were euthanized by exsanguination under isoflurane anesthesia. Then, the soleus muscles were removed and the muscle weight was measured. In Table 2, the soleus muscle weight is an average value.

[2] = tested on: skeletal muscle-derived myoblasts (C2C12) of mice; assay: Test for myoblast-proliferation promotion effect (MTT assay); format: cell-based; conditions: for Myoblast proliferation promotion rate (%): cultured 2 days, MTT, rate = A/B×100 vs cells without test sample
Protocol: A test on a myoblast proliferation effect of the compound represented by Structural Formula (1) (using the compound available from Sigma-Aldrich) was performed according to the following testing method.
After culturing skeletal muscle-derived myoblasts (C2C12) of mice in a Dulbecco's modified eagle medium (DMEM) containing 10% FBS, the cells were collected by trypsinization. The collected cells were diluted with a 5% FBS-containing DMEM so that a concentration of the cells was to be 2.0×10^4 cells/mL. Then, the dilution was seeded by 100 μL per well in a 96-well plate, followed by culturing for 6 hours. After completing the culture, a test sample dissolved in a 5% FBS-containing DMEM (see Table 1 below for the final concentration) was added by 100 μL per well, followed by culturing for 2 days. Even in the case where the test sample was not added, culturing was performed in the same manner except that the test sample was not added.
The myoblast-proliferation promotion effect was measured using an MTT assay. After completing the culture, the medium was removed, and MTT dissolved in a PBS buffer solution (PBS(−)) at a final concentration of 0.4 mg/mL was added by 100 μL per well. After culturing for 2 hours, blue formazan generated within the cells was extracted with 100 μL of 2-propanol. After the extraction, absorbance at a wavelength of 570 nm was measured. In addition, absorbance at a wavelength of 650 nm was measured as turbidity. The difference between the absorbance at the wavelength of 570 nm and the absorbance at the wavelength of 650 nm was used to determine an amount of blue formazan generated.
The myoblast proliferation promotion rate (%) was calculated from the obtained results according to the following equation.
Myoblast proliferation promotion rate (%)=A/B×100
In the equation above, A and B are as follows. • A: An amount of blue formazan generated in the cells to which the test sample was added. • B: An amount of blue formazan generated in the cells to which the test sample was not added.

## O=C(O)CCc1ccc(O)c(O)c1 [3,4-dihydroxyhydrocinnamic acid]
[1]; hindlimb-suspended male Wistar rats, 125 mg/kg oral gavage daily for 14 days, average value (normal group 359.1, control group 139.3)
  Soleus muscle weight: 151.3
[1]; hindlimb-suspended rats, 125 mg/kg oral, 14 days
  Soleus muscle weight compared to the control group (in words): increased compared to the control group
[1]; rat model of disuse muscle atrophy, 125 mg/kg oral, 14 days
  Muscle atrophy inhibition (in words): inhibited muscle atrophy
[2]; conclusion from Table 1
  Myoblast-proliferation promotion effect (in words): excellent myoblast-proliferation promotion effect
[2]; test sample 25 μmol/L
  Myoblast proliferation promotion rate (%): 106.4%
[2]; test sample 100 μmol/L
  Myoblast proliferation promotion rate (%): 108.0%
